Data on 1 compound can be found in patent US12528777B2, “Quinazolinones derivatives for treatment of non-alcoholic fatty liver disease, preparation and use thereof” (Council of Scientific and Industrial Research, priority 2020, dated 2026).

This assay addresses COP1 (Mus musculus, UniProt Q9R1A8). Put plainly: In vivo study: COP1 level in mouse liver. Details: from tissue; host or cells: mouse liver (in vivo dosing); species or system C57BL/6 mice. Particulars: 30 mg/kg orally. As to the method: 6-8 weeks old healthy female C57BL/6 mice (average weight: 25 grams) were taken for the study. These were then divided into three groups comprising of three mice per group (Control, compound 107 fed for 8 hours and compound 107 fed for 16 hours). Mice were fed with 30 mg/kg of compound 107 orally. The compound was dissolved in 25% DMSO and 75% PBS. The control group was fed only with the solvent in which the compound was dissolved. Post 8 hours and 16 hours of feeding, mice were sacrificed and a portion of the excised liver tissue was homogenized in lysis buffer containing protease inhibitor cocktail. The homogenate was centrifuged at 20,000 g for 30 minutes following which the supernatant containing the protein lysate was collected. The lysate was then diluted accordingly and protein estimation was carried out by Bradford Assay. This was followed by Western Blotting wherein the levels of ATGL and COP1 were checked. Actin was used as the loading control.

Entries after “also recorded” stand apart in the source; their conditions may differ.

COP1, sequence (Q9R1A8 whole entry): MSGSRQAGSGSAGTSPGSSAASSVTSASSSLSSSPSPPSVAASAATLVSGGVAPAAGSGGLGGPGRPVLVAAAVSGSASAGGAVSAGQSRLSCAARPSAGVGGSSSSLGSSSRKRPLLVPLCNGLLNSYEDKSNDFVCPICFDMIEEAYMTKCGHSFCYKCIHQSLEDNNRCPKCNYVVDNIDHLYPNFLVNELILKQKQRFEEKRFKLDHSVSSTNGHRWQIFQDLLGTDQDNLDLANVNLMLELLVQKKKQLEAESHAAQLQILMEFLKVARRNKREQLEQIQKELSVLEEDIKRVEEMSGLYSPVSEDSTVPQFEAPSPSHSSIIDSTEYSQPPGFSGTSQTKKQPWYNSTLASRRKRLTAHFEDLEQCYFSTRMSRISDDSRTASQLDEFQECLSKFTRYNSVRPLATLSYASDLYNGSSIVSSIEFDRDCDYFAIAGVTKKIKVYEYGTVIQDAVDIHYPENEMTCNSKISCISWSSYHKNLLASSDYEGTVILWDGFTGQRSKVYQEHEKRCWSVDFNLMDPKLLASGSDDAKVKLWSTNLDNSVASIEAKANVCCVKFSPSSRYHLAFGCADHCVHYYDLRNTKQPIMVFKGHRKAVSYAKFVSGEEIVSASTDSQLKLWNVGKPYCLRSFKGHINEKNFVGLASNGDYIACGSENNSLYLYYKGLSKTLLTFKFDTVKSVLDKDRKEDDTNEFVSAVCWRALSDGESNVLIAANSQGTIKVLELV

With `COCCn1c(C)nc2ccc(NC(=O)Nc3cccc(C(C)=O)c3)cc2c1=O` [Compound 107, 1-(3-acetylphenyl)-3-(3-(2-methoxyethyl)-2-methyl-4-oxo-3,4-dihydroquinazolin-6-yl)urea], the “COP1 level in liver, 8 hours after feeding” value is listed as “no such effect on COP1; also recorded: no significant impact”.
